Data taken from ChEMBL document CHEMBL1146856, “Novel, orally bioavailable gamma-aminoamide CC chemokine receptor 2 (CCR2) antagonists” (J Med Chem, 2006).

Tests used:
[1] = molecular target: T1, C-C chemokine receptor type 2 (Homo sapiens, UniProt P41597); test: Inhibition of [125I]MCP1 binding to CCR2 expressed in CHO cells at 1 uM; assay type: cell-based
Target sequence in this assay (P41597 whole entry, looked up): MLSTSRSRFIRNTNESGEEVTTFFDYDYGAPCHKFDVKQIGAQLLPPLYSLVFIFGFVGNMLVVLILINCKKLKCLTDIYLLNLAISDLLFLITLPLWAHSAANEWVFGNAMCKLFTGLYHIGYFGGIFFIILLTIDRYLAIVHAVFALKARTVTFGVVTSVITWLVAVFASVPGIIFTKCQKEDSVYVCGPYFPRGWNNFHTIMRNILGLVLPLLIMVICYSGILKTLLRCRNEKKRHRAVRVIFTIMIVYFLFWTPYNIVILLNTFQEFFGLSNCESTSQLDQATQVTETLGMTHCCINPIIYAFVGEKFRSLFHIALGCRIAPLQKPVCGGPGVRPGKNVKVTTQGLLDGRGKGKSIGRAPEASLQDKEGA

[2] = molecular target: T1, C-C chemokine receptor type 2; test: Inhibition of [125I]MCP1 binding to CCR2 expressed in CHO cells; assay type: cell-based
Target sequence in this assay (P41597 whole entry): as the sequence (P41597 whole entry, looked up) above

[3] = molecular target: T2, C-C chemokine receptor type 5 (Homo sapiens, UniProt P51681); test: Inhibition of CCR5 at 0.01 uM
Target sequence in this assay (P51681 whole entry, looked up): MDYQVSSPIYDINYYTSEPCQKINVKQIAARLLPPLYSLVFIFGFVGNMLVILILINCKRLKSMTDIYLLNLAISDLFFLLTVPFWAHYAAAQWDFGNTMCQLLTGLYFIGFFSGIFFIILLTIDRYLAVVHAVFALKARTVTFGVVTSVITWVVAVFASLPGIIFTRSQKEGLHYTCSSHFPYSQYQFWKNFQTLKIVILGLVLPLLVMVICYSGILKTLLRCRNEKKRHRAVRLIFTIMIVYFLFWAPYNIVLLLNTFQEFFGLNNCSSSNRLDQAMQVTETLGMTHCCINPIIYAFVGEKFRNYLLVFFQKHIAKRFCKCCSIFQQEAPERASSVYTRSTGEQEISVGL

Monocyte [4] = test: Inhibition of MCP1-stimulated chemotaxis of human monocyte; assay type: functional, cell-based
Substance-P receptor = Substance-P receptor (Homo sapiens, UniProt P25103); test: Inhibition of NK1
[5] = Oral bioavailability in rat at 3 mg/kg; assay type: ADME, organism-based; details: in vivo
[6] = Plasma clearance in rat at 3 mg/kg; assay type: ADME, organism-based; design: dose 3 mg/kg
[7] = molecular target: T2, C-C chemokine receptor type 5; test: Inhibition of CCR5
Target sequence in this assay (P51681 whole entry): as the sequence (P51681 whole entry, looked up) above

[8] = Half life in rat at 3 mg/kg; assay type: ADME, organism-based; design: dose 3 mg/kg; details: in vivo
Monocyte [9] = test: Inhibition of MCP1-stimulated chemotaxis of human monocyte at 1 uM; assay type: functional

Sequence of Substance-P receptor (P25103 whole entry): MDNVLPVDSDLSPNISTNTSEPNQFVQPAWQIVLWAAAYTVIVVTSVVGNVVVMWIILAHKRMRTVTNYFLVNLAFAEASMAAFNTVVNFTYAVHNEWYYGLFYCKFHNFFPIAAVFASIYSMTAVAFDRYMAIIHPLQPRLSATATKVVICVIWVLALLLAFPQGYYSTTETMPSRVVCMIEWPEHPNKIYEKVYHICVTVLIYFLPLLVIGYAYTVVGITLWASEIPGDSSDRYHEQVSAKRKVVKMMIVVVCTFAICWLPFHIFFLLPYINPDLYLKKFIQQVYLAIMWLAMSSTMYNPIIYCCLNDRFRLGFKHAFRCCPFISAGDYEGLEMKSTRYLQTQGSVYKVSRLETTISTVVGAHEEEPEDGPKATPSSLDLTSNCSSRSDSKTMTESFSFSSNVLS

O=C(NCc1cc(C(F)(F)F)cc(C(F)(F)F)c1)[C@@H](CCN1CCN(c2ccccc2)CC1)c1ccc(F)cc1
inhibition [1]: 11%

O=C(NCc1cc(C(F)(F)F)cc(C(F)(F)F)c1)[C@@H](CCCN1CCCCC1)c1ccc(F)cc1
IC50 [2]: 1000 nM

O=C(NCc1cc(C(F)(F)F)cc(C(F)(F)F)c1)[C@@H](CCN1CCCCC1)c1ccc(F)cc1
IC50 [2]: 1100 nM

C[C@H]1CN(CC[C@H](C(=O)NCc2cc(C(F)(F)F)cc(C(F)(F)F)c2)c2ccc(F)cc2)CC[C@@]12C=Cc1ccccc12
inhibition [3]: 26% | IC50 (Monocyte [4]): 41 nM | IC50 [2]: 59 nM | IC50 (Substance-P receptor): 28 nM

C[C@](CCN1CCC(c2ccccc2)CC1)(CNCc1cc(C(F)(F)F)cc(C(F)(F)F)c1)c1ccc(F)cc1
IC50 [2]: 1070 nM

C=CCN1CCC(N(CC[C@H](C(=O)NCc2cc(C(F)(F)F)cc(C(F)(F)F)c2)c2ccc(F)cc2)C(=O)OCc2ccccc2)CC1
inhibition [1]: 14%

O=C(NCc1cc(C(F)(F)F)cc(C(F)(F)F)c1)[C@@H](CCN1CCCC(c2ccccc2)CC1)c1ccc(F)cc1 (stereo not given in full)
inhibition [1]: 3%

O=C(NCc1cc(C(F)(F)F)cc(C(F)(F)F)c1)[C@@H](CCCN1CCC(c2ccccc2)CC1)c1ccc(F)cc1
IC50 [2]: 1100 nM

C[C@H]1CN(CC[C@H](CNCc2cc(C(F)(F)F)cc(C(F)(F)F)c2)c2ccc(F)cc2)CC[C@@H]1c1ccccc1
IC50 [2]: 140 nM

CC(CN1CCC(c2ccccc2)CC1)[C@H](CNCc1cc(C(F)(F)F)cc(C(F)(F)F)c1)c1ccc(F)cc1 (stereo not given in full)
inhibition [1]: 0%

O=C(NCc1cc(C(F)(F)F)cc(C(F)(F)F)c1)[C@@H](CCN1CCC(c2ccsc2)CC1)c1ccc(F)cc1
IC50 [2]: 160 nM

O=C(NCc1cc(C(F)(F)F)cc(C(F)(F)F)c1)[C@@H](CCN1CC(c2ccccc2)C1)c1ccc(F)cc1
inhibition [1]: 18%

CC(C[C@H](C(=O)NCc1cc(C(F)(F)F)cc(C(F)(F)F)c1)c1ccc(F)cc1)N1CCC(c2ccccc2)CC1 (stereo not given in full)
IC50 [2]: 1500 nM

O=C(NCc1cc(C(F)(F)F)cc(C(F)(F)F)c1)[C@H](CCN1CCC(c2ccccc2)CC1)c1ccc(F)cc1
IC50 [2]: 930 nM

C[C@@H]1CN(CC[C@H](CNCc2cc(C(F)(F)F)cc(C(F)(F)F)c2)c2ccc(F)cc2)CC[C@@H]1c1ccccc1
IC50 [2]: 700 nM

CN(C)CCN[C@H](C(=O)NCc1cc(C(F)(F)F)cc(C(F)(F)F)c1)c1ccc(F)cc1
IC50 [2]: 720 nM

CC1CN(CC[C@H](C(=O)NCc2cc(C(F)(F)F)cc(C(F)(F)F)c2)c2ccc(F)cc2)CCN1c1ccccc1 (stereo not given in full)
IC50 [2]: 780 nM

O=C(NCc1cc(C(F)(F)F)cc(C(F)(F)F)c1)[C@@H](CCN1CCC(C2CCCCC2)CC1)c1ccc(F)cc1
inhibition [1]: 20%

O=C(NCc1cc(C(F)(F)F)cc(C(F)(F)F)c1)[C@@H](CCN1CCC2(C=Cc3ccccc32)CC1)c1ccc(F)cc1
bioavailability [5]: 38% | IC50 (Monocyte [4]): 176 nM | clearance [6]: 6 mL/min/kg | IC50 [7]: 30 nM | IC50 [2]: 80 nM | IC50 (Substance-P receptor): 50 nM | half-life [8]: 480 min

C[C@@H]1CN(CC[C@H](C(=O)NCc2cc(C(F)(F)F)cc(C(F)(F)F)c2)c2ccc(F)cc2)CC[C@]12C=Cc1ccccc12
IC50 (Monocyte [4]): 62 nM | IC50 [2]: 120 nM

CCC1CN(CC[C@H](C(=O)NCc2cc(C(F)(F)F)cc(C(F)(F)F)c2)c2ccc(F)cc2)CCC12C=Cc1ccccc12 (stereo not given in full)
IC50 [2]: 440 nM

CC1CN(CC[C@H](C(=O)NCc2cc(C(F)(F)F)cc(C(F)(F)F)c2)c2ccc(F)cc2)CCC12C=Cc1ccccc12 (stereo not given in full)
IC50 [2]: 45 nM

O=C(NCc1cc(C(F)(F)F)cc(C(F)(F)F)c1)[C@@H](CCN1CCCC(Cc2ccccc2)C1)c1ccc(F)cc1 (stereo not given in full)
inhibition [1]: 43%

O=C(NCc1cc(C(F)(F)F)cc(C(F)(F)F)c1)[C@@H](CCN1CCC(c2ccccc2)C1)c1ccc(F)cc1 (stereo not given in full)
inhibition [1]: 44%

O=C(NCc1cc(C(F)(F)F)cc(C(F)(F)F)c1)[C@@H](CCN1CC[C@@H]2c3ccccc3CC[C@H]2C1)c1ccc(F)cc1
inhibition [1]: 6%

O=C(NCc1cc(C(F)(F)F)cc(C(F)(F)F)c1)[C@@H](CCN1CCC(c2ccccc2)CC1)c1ccc(F)cc1
inhibition at 1 µM (Monocyte [9]): 40% | IC50 [7]: 72 nM | IC50 [2]: 150 nM | IC50 (Substance-P receptor): 24 nM

O=C(NCc1cc(C(F)(F)F)cc(C(F)(F)F)c1)[C@@H](CCN1CCC2(CCc3ccccc32)CC1)c1ccc(F)cc1
IC50 [2]: 320 nM
